# In PMC10917278, “Structural insights into the modulation Of SOD1 aggregation By a fungal metabolite Phialomustin-B: Therapeutic potential in ALS” (PLOS ONE, 2024):
# Molecular target: T1, SOD1^WT (Homo sapiens, UniProt P00441)
# T1 construct: The full-length constructs of SOD1-wild type (aa: 1–145); His-tag (cleaved yes); made in house; host or cells: E. coli BL21 DE3
# Assay: Analytical size-exclusion chromatography (SEC) aggregation assay, SOD1^WT
# Assay type: biochemical
# Conditions: PB 30X, reducing conditions
# Description: Fig 6 Aggregation studies of metallated and reduced SOD1^WT and SOD1^A4V on treatment with PB. ThT fluorescence was monitored during the co-incubation of metallated SOD1^WT (50 μM) (a) or SOD1^A4V (50 μM) (b) with PB at 1:30 molar ratio at 37 °C with continuous shaking, under reduced conditions. The values were normalized to the maximal ThT intensity elicited by SOD1^WT or SOD1^A4V and fitted to a Boltzmann sigmoidal equation. The control and PB-treated species were compared to analyse the effects of PB on the aggregation of SOD1^WT and SOD1^A4V. Error bars indicate the standard deviation. Analytical SEC of metallated SOD1^WT (50 μM) (c) and SOD1^A4V (50 μM) (d) with PB were analyzed under reducing conditions before and after 24 hrs and 48 hrs incubation at 37 °C. The first peak eluting at the volume was denoted as oligomerized SOD1^WT/SOD1^A4V (L). The second, third, and fourth peaks were calculated as trimer (T), dimer (D), and monomer (M) species of SOD1^WT/SOD1^A4V running at 14.5 ml, 15.7 ml, and 16.5 ml, respectively. […] The monomer (M), dimer (D), trimer (T), and large aggregate (L) species are shown as green, purple, red, and black dotted lines, respectively. All the experiments were performed for n = 3 biological replicates. […]
# Fig 7 Aggregation studies of de-metallated and reduced SOD1^WT and SOD1^A4V on treatment with PB. ThT fluorescence was monitored during the co-incubation of de-metallated SOD1^WT (50 μM) (a) or SOD1^A4V (50 μM) (b) with PB at 1:30 molar ratio at 37 °C with continuous shaking, under reduced conditions. […] Analytical SEC of de-metallated SOD1^WT (50 μM) (a) and SOD1^A4V (50 μM) (b) with PB were analysed under reducing conditions before and after 24 hrs and 48 hrs incubation at 37 °C. […] The second, third, and fourth peaks were calculated as trimer (T), dimer (D), and monomer (M) species of SOD1^WT/SOD1^A4V running at 14.5 ml, 15.7 ml, and 16.5 ml, respectively. […]
# [1] = Metallated SOD1^WT 50 μM, 24 and 48 hrs at 37 °C
# T1 sequence (P00441 whole entry): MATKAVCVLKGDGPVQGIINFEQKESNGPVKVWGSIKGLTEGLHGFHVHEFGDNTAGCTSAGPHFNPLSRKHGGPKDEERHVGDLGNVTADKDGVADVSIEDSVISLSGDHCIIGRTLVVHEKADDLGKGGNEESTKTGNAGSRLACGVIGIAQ
smiles,measurement,setting,value
"CCCC[C@H](C)/C=C(C)/C=C/C(=O)O [PB, (S, 2E, 4E)-4,6-dimethyldeca-2,4-dienoic acid]",formation of trimer species (SEC),"De-metallated (EDTA) SOD1^WT 50 μM, 48hrs",insignificantly reduced compared to the control
same,"formation of higher aggregates (SEC, eluting at 9.2 ml)",[1],may induce the formation of higher aggregates in a time-dependent manner
same,toxic trimer population (SEC),[1],time-dependent alleviation of toxic trimer population
